In US6265423A, “Aromatic polycyclic retinoid-type derivatives, method for preparing same, and use thereof for making pharmaceutical and cosmetic compositions” (priority 1996, dated 2001):
“Also recorded” adds a separate entry of the source. Read-outs that look alike come from different tables or passages of the source.

Columns and labels:
Format in all cases: cell-based
RARβ-ERcassette = test: Transactivation, chimerical receptor RARβ-ERcassette (HeLa); conditions: TTNPB 10^-8 M = 100
In short: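 First, HeLa cells receive the chimeric RAR construct, whose native DNA-binding domain is exchanged for the oestrogen receptor's, plus an ERE-luciferase reporter and β-galactosidase control, by calcium phosphate co-precipitation. After 24 h, cells are incubated with effectors for 16 h before luciferase measurement.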

[1] = test system: T-47D human mammary cancer cells; test: MTT test, proliferation of T-47D; conditions: for activity at 100 µM / activity at 1 µM / activity at 0.01 µM: Homo sapiens, T47D, 72 h, read-out: level of proliferation; for effect on cellular increase, T-47D (in words): MTT test
In short: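 After 24 h seeding, cells in MEM with 5% decomplemented FCS at 37° C were exposed to compound at 10^-8 M, 10^-6 M and 10^-4 M. Viability was assessed by MTT reduction to formazan, dissolved in DMSO. Mean optical density is expressed as % of untreated control (100%), in 6 duplicates.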

[2] = test system: human mammary tumoral lineage T-47D; test: Clonogenic test (soft agar), growth of cellular colonies; conditions: for activity at 0.1 µM / activity at 0.01 µM / activity at 0.001 µM / activity at 0.0001 µM: 504 h, read-out: mean number of cellular colonies in relation to control; for effect on growth of cellular colonies (in words): soft agar
In short: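 T-47D cells of over 90% viability were seeded in 0.3% agar over a 0.5% agar base and kept at 37 °C with 5% CO2 for 21 days after treatment. After staining with MTT (1 mg/ml, at least 3 h), colonies larger than 100 μm² were counted microscopically and expressed as a percentage of control.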

[3] = test system: RAR-ERcassettes (RARα, RARβ, RARγ); test: Chimerical receptors RAR-ERcassettes, overall profile
Text: The HeLa cells are co-transfected by a plasmid which codes for a retinoic receptor in which the C domain of bonding to the DNA is substituted by that of the receptor to RE oestrogens, and a plasmid which places the expression of the luciferase under the control of an ERE (Element of Response to Oestrogens). The expressed chimerical receptors are designated as RARα-ERcassette, RARβ-ERcassette, RARγ-ERcassette and RXRα-ERcassette. The A, B, D, E and F regions of the natural receptor are preserved as well as the transcriptional co-operation between the activation domains AF-1 and AF-2. These transitory transfection experiments follow the method of co-precipitation to calcium phosphate. The HeLa cells are co-transfected by […] of plasmid coding for the chimerical receptor, […] of reporter plasmid and […] of expression vector CMV-β-galactosidase used as an internal control of transfection. 24 hours after the transfection, the cells are incubated for 16 hours with the different effectors.
In this type of chimerical receptor, the C domain of bonding to the DNA of RAR is substituted by that of the receptor to the RE oestrogens. The protein obtained is close to the natural RAR receptor and preserves the transcriptional properties of the AF-1 and AF-2 domains. It modulates the transcription by means of an ERE. This RAR-ERcassette model allows one to observe a transcriptional response to a more physiological ligand.

[4] = Homo sapiens, T47D, T-47D, 10^-7 M, 21 days, control = 100%
[5] = Homo sapiens, T47D, T-47D, 10^-8 M, 21 days, control = 100%
[6] = Homo sapiens, T47D, T-47D, 10^-9 M, 21 days, control = 100%
[7] = Homo sapiens, T47D, T-47D, 10^-10 M, 21 days, control = 100%

SMILES	RAR-ERcassette RARβ transactivation (RARβ-ERcassette; 10^-6 M)	RAR-ERcassette RARβ transactivation (RARβ-ERcassette; 10^-7 M)	RAR-ERcassette RARβ transactivation (RARβ-ERcassette; 10^-8 M)	activity at 100 µM ([1]; T-47D, 10^-4 M, control = 100%)	activity at 1 µM ([1]; T-47D, 10^-6 M, control = 100%)	activity at 0.01 µM ([1]; T-47D, 10^-8 M, control = 100%)	activity at 0.01 µM [2, 5]	activity at 0.001 µM [2, 6]	effect on growth of cellular colonies (in words) ([2]; T-47D)	RAR-ERcassette profile (in words) [3]	activity at 0.0001 µM [2, 7]	effect on cellular increase, T-47D (in words) [1]	also measured
C/C(=C/c1ccc2c(c1)C(C)(C)CCC2(C)C)c1ccc(C(=O)O)cc1 [CB28628, reference compound]	183%	115%	88%	4%	59.3%	93.2%	97.6%	89.2%	strongly and significantly inhibits the growth of the cellular colonies at the concentration of 10^-7 M but very rapidly loses its activity beyond the concentration of 10^-8 M	complete agonist for RARγ-ERcassetteand induce an over-activation of RARα-ERcassette and RARβ-ERcassette at 1 μM	–	–	activity at 0.1 µM [2, 4]: 21.4%
CC1(C)CCC(C)(C)c2cc(/C=C(\c3ccc(C(=O)O)cc3)C(F)(F)F)ccc21 [CB36493, (E) 4-[1-trifluoromethyl-2-(5,6,7,8-tetrahydro-5,5,8,8-tetramethyl-2-naphthalenyl)-1-ethenyl]benzoic acid]	205%	34%	0%	21.4%	116%	134%	17.4 ± 2%	24.8 ± 0.5%	as active as the reference products CB13407 (9-cis RA) and LGD1069	induce a transactivation mediated by the three receptors	35.8 ± 3.2%	–	–
CC1=C(/C=C/C(C)=C/C=C/C(C)=C/C(=O)O)C(C)(C)CCC1 [CB16178, all-trans retinoic acid, reference compound]	475%	270%	128%	1.8%	52.6%	77.2%	–	–	–	induce an over-expression of luciferase in comparison to the induction brought about by a synthetic compound (TTNPB)	–	inhibit the cellular increase of the two mammary lineages at the concentrations tested	RAR-ERcassette RARβ transactivation (RARβ-ERcassette; 10^-9 M): 93%
CC1(C)CCC(C)(C)c2cc(/C=C(\c3ccc(-c4nnn[nH]4)cc3)C(F)(F)F)ccc21 [CB77402, (E) 5-[4-[1-trifluoromethyl-2-(5,6,7,8-tetrahydro-5,5,8,8-tetramethyl-2-naphthalenyl)-1-ethenyl]phenyl]-1H-tetrazole]	37%	31%	0%	15.4%	118%	128%	–	–	–	do not permit transactivation mediated by RARα-ERcassette and RARγ-cassette. However, a partial transactivation of RARβ-ERcassette is observed; also recorded: with a specific RAR agonist permits an over-activation of the effect of the RAR molecule alone for the three RAR-ERcassette receptors	–	–	–
C/C(=C\c1ccc2c(c1)C(C)(C)CCC2(C)C)c1ccc(C(=O)Nc2nnn[nH]2)cc1 [CB73364]	118%	–	–	0%	53%	62%	10.3 ± 2.8%	54.9 ± 5.8%	inhibit the growth of the cellular colonies	–	99.3 ± 7.8%	inhibits the increase of the T-47D cells	inhibition at 0.01 µM ([2]; Homo sapiens, T47D, T-47D, 10^-8 M, read-out: inhibition of colony growth): 69.7%
C/C(=C\c1ccc(C(=O)O)cc1)c1ccc2c(c1)C(C)(C)CCC2(C)C [TTNPB, reference compound]	–	–	–	3.5%	61.7%	58.5%	–	–	more active than the product CB36493 of the cis series (Z)	–	–	inhibit the cellular increase of the two mammary lineages at the concentrations tested	activity at 0.0001 µM ([2]; Homo sapiens, T47D): 34.1%; activity at 0.001 µM ([2]; Homo sapiens, T47D): 5.5%; activity at 0.01 µM ([2]; Homo sapiens, T47D): 2.1%; activity at 0.1 µM ([2]; Homo sapiens, T47D): 1.3%; inhibition at 0.0001 µM ([2]; Homo sapiens, T47D, read-out: inhibition of colony growth): 66%; effect on growth of cellular colonies (in words) ([2]; T-47D, listed as CB01570): inhibits very strongly, in a significant and dose dependent manner the growth of cellular colonies
C/C(=C\c1cc2c(cc1C)C(C)(C)CCC2(C)C)c1ccc(C(=O)O)cc1 [CB71802]	–	–	–	14.3%	113%	132%	45.2 ± 4.8%	92.5 ± 9.6%	–	–	104 ± 2.3%	–	–
C/C(=C/c1ccc2c(c1)C(C)(C)CCC2(C)C)c1ccc(C(=O)O)nc1 [CB16279, (Z) 5-[1-(5,6,7,8-tetrahydro-5,5,8,8-tetramethyl-2-naphthalenyl)-2-propenyl]pyridinyl-2-carboxylic acid]	118%	60%	–	–	–	–	–	110 ± 1.5%	does not induce any significant modification in the growth of the cellular colonies	induce a transactivation mediated by the three receptors	–	–	activity at 0.1 µM [2, 4]: 102 ± 3.4%
CC(C=C/C=C(C)\C=C\C1=C(C)CCCC1(C)C)=CC(=O)O [CB13407, 9-cis retinoic acid, reference compound]	369%	212%	94%	16.3%	91.7%	122%	45.6%	52.8%	significant and dose dependent inhibiting activity	induce an over-expression of luciferase in comparison to the induction brought about by a synthetic compound (TTNPB)	54.9%	stimulates the cellular increase at 10^-6 M and 10^-8 M	RAR-ERcassette RARβ transactivation (RARβ-ERcassette; 10^-9 M): 16%; activity at 0.1 µM [2, 4]: 6.7%
C/C(=C/c1ccc2c(c1)C(C)(C)CCC2(C)C)c1ccc(-c2nnn[nH]2)cc1 [CB92834]	43%	36%	0%	3.5%	83.2%	86.5%	38 ± 2%	58.9 ± 3.7%	global inhibiting and dose dependent activity as great as that obtained with the best products in the trans series (E)	do not permit transactivation mediated by RARα-ERcassette and RARγ-cassette. However, a partial transactivation of RARβ-ERcassette is observed; also recorded: with a specific RAR agonist permits an over-activation of the effect of the RAR molecule alone for the three RAR-ERcassette receptors	82.5 ± 12%	strongly inhibitive activity on the cellular increase of the two lineages	–
Cc1cc2c(cc1C(=O)c1ccc(C(=O)O)cc1)C(C)(C)CCC2(C)C [LGD-CB14499, reference compound]	130%	58%	10%	–	–	–	–	–	–	transcriptional power appears higher notably through the RARβ-ERcassette	–	–	activity at 0.01 µM [1]: 88.2%; activity at 1 µM [1]: 82.7%; activity at 100 µM [1]: 1.3%
